According to article PMC6515931, “The Efflux Mechanism of Fraxetin-O-Glucuronides in UGT1A9-Transfected HeLa Cells: Identification of Multidrug Resistance-Associated Proteins 3 and 4 (MRP3/4) as the Important Contributors” (Frontiers in Pharmacology, 2019):

Tests used:
[1] = test system: HeLa1A9 cells; test: Glucuronide excretion experiments in HeLa1A9 cells; assay type: cell-based, human; conditions: for excretion with elevation of the fraxetin concentration: fraxetin 5, 10 and 20 μM, HeLa1A9 cells
Method: The HeLa1A9 cells were pretreated and incubated with fraxetin solutions as reported previously ([Jiang et al., 2011]). Before assays, the HeLa1A9 cells were washed twice with prewarmed (37°C) Hank’s balanced salt solution (HBSS; pH = 7.4). […] At each time point (30, 60, 90, and 120 min), 200 μL of the culture supernatant from each well was collected as samples, and an equal volume of a loading media was used to replenish each well. Next, the collected samples were each mixed with 100 μL ice-cold acetonitrile. The supernatants were subjected to UHPLC analysis after centrifugation (10 min at 13800 × g).
(§1) In addition, the excretion rate of intracellular glucuronides was calculated using Equ. 2. Fraction metabolized or the fmet value was defined as the fraction of a dose metabolized based on Equ. 3. The fmet value was regarded as the more appropriate parameter to reflect the extent of drug metabolism in intact cells in the presence of a transporter–enzyme interplay.
(§2) (2) Excretion rate=VdC(excretedglucuronide)/dt
(§3) where V is the volume of the incubation medium, C is the excreted cumulative concentration of glucuronides, and t denotes the incubation time. Here, dC(excreted glucuronide)/dt describes the changes in glucuronide levels with time.

[2] = biological target: T1, UGT1A9 (Homo sapiens, UniProt O60656)
T1 sequence (O60656 26-530): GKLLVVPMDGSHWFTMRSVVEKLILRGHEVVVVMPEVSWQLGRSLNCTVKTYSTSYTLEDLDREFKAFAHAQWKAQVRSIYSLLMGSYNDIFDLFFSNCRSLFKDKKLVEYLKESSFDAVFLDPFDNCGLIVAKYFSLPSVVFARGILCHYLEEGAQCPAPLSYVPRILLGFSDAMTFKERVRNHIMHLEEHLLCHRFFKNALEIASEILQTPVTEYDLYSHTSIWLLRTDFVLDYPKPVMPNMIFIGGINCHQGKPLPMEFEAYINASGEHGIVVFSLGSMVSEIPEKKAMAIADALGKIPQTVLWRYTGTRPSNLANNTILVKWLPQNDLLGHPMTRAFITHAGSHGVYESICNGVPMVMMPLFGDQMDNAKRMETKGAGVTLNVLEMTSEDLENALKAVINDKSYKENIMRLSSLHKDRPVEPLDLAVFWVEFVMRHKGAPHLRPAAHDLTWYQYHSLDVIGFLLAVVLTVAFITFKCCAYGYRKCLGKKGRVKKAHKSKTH
Method: (§4) The incubation system was slightly modified on the basis of a previously published article ([Qin et al., 2018a]). […] After preincubation at 37°C for 5 min, UDPGA (3.5 mM) was added to the reaction system, and the mixture was incubated for another 30 min. These reactions were terminated by the addition of an equal volume of ice-cold acetonitrile. The mixed samples were centrifuged at 13800 × g for 10 min, and the supernatant was analyzed by ultra-high-performance liquid chromatography (UHPLC). All the experiments were conducted in triplicate.
The enzyme kinetic parameters were obtained by fitting appropriate kinetic models to the experimental data in GraphPad Prism V5 software (San Diego, CA, United States). The best model was selected based on visual inspection of the Eadie–Hofstee plots ([Qin et al., 2018b]). In brief, if the Eadie–Hofstee plot was linear, formation rates (V) of glucuronides at different substrate concentrations (C) were fitted to the standard equations (1): […]
Where Km is the Michaelis–Menten constant, and Vmax is the maximum rate of glucuronidation. The intrinsic clearance (CLint) was computed as Vmax/Km.

[3] = biological target: T2, MRP4 (Homo sapiens, UniProt O15439); test: shRNA-mediated partial silencing of MRP4 in HeLa1A9 cells, glucuronide excretion; assay type: cell-based; conditions: fraxetin 10 μM; for decreased excretion of glucuronide: HeLa1A9 cells
T2 construct: BCRP, MRP1, MRP3, and MRP4 were detected in both wild-type HeLa and HeLa1A9 cells; endogenous in cells
T2 sequence (O15439 1-1325): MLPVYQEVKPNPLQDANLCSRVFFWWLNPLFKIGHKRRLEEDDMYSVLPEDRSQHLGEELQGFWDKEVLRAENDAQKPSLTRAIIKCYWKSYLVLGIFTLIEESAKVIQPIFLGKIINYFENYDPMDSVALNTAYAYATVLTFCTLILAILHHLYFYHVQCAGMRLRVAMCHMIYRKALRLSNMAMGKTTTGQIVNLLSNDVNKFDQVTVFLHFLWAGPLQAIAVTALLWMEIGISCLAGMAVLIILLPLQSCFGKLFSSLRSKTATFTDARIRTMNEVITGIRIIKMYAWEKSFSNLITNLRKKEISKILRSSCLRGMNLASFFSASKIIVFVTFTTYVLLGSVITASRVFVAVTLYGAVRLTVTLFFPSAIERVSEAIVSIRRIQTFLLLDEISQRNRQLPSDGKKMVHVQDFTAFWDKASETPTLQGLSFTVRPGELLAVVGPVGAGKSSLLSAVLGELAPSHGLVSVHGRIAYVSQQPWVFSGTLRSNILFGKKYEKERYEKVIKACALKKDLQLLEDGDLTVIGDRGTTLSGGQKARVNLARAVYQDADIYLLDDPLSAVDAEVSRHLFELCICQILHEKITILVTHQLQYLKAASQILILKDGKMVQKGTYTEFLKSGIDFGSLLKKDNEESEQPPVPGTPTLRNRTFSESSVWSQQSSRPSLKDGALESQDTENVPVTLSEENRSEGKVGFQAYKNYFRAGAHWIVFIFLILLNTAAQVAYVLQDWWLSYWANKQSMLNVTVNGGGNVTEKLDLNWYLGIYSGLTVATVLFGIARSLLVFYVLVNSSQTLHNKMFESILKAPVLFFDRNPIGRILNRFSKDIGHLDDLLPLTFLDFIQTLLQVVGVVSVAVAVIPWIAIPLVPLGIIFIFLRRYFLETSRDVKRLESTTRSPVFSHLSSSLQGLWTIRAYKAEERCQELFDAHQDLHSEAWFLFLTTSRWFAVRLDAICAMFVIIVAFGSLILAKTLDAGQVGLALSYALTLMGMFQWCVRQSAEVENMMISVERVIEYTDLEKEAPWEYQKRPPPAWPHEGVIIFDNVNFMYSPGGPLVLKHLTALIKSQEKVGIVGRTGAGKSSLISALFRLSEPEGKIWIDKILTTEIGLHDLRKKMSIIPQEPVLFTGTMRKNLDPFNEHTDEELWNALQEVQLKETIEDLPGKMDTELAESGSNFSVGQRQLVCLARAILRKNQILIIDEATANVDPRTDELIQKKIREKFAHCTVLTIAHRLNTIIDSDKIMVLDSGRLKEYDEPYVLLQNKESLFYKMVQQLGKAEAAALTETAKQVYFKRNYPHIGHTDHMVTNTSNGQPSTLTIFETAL
Method: (§5) The HeLa1A9 cells were pretreated and incubated with fraxetin solutions as reported previously ([Jiang et al., 2011]). Before assays, the HeLa1A9 cells were washed twice with prewarmed (37°C) Hank’s balanced salt solution (HBSS; pH = 7.4). After that, fraxetin (10 μM) dissolved in 2 mL of HBSS was incubated with the HeLa1A9 cells. At each time point (30, 60, 90, and 120 min), 200 μL of the culture supernatant from each well was collected as samples, and an equal volume of a loading media was used to replenish each well. Next, the collected samples were each mixed with 100 μL ice-cold acetonitrile. The supernatants were subjected to UHPLC analysis after centrifugation (10 min at 13800 × g).
(§6) In glucuronide excretion assays, biological inhibition mainly including shRNA-mediated partial silencing of BCRP and MRPs in HeLa cells was usually performed to evaluate the role of each efflux transporter ([Quan et al., 2015]; [Sun et al., 2015]; [Qin et al., 2018a]). Established shRNA_BCRP, shRNA_MRP1, shRNA_MRP3, and shRNA_MRP4 plasmids were […] transfected into HeLa1A9 cells to develop the stably shRNA-transfected cell lines, named HeLa1A9-BCRP-shRNA cells, HeLa1A9-MRP1-shRNA, HeLa1A9-MRP3-shRNA, and HeLa1A9-MRP4-shRNA cells, respectively. After transfection for 2 days, these engineered HeLa1A9 cells were subjected to fraxetin-O-glucuronide excretion experiments. The control scrambled shRNA served as a negative control.
as §1, §2
(§7) (3) fmet=excreted glucuronide+intracellular glucuronide/dosed aglycone
as §3

[4] = biological target: T3, MRP3 (Homo sapiens, UniProt O15438); test: shRNA-mediated partial silencing of MRP3 in HeLa1A9 cells, glucuronide excretion; assay type: cell-based; conditions: fraxetin 10 μM; for decrease in fraction metabolized (fmet; overall cellular glucuronidation) / reduction in excretion rate / reduction in excreted glucuronide: MRP3 knockdown; for reduction in excreted glucuronide: HeLa1A9 cells; for elevation of intracellular glucuronide level: MRP3 silencing
T3 construct: BCRP, MRP1, MRP3, and MRP4 were detected in both wild-type HeLa and HeLa1A9 cells; endogenous in cells
Method: as §5, §6, §1, §2, §7, §3

[5] = biological target: T4, HeLa1A9 cell lysate (Homo sapiens, UniProt O60656); test: Effect of Ko143 and MK571 on fraxetin-O-glucuronidation activity of HeLa1A9 cell lysate; assay type: biochemical; conditions: Ko143 20 μM
T4 sequence (O60656 26-530): T1 sequence (O60656 26-530)
Method: as §4
(§8) Other detailed operations were the same as described above.

[6] = biological target: T1, UGT1A9; test: Effect of Ko143 and MK571 on fraxetin-O-glucuronidation activity of UGT1A9; conditions: Ko143 20 μM
Method: as §4, §8

[7] = biological target: T1, UGT1A9; test: Inhibition of fraxetin-O-glucuronide formation by selective UGT1A9 inhibitors; assay type: biochemical; parameters: purchased Corning Biosciences; conditions: fraxetin 4 and 20 μM; magnolol 1 μM, niflumic acid 10 μM, androsterone 10 μM
Method: as §4, §8

[8] = substrate: CC(C)c1cccc(C(C)C)c1O; test: cells, lysate or membranes named; conditions: other: metabolite propofol-G, pH 7.4, 37.0 °C
[9] = substrate: COc1cc2ccc(=O)oc2c(O)c1O; test: cells, lysate or membranes named; conditions: UGT1A9 enzyme, pH 7.4, 37.0 °C
[10] = substrate: COc1cc2ccc(=O)oc2c(O)c1O; test: Glucuronidation kinetics by HeLa1A9 cell lysate; assay type: in vitro ADME, human
Method: HeLa1A9 cells were grown in 10 cm dishes for 3 to 4 days and then were washed and harvested in 50 mM Tris buffer (pH = 7.4). The collected cells were sonicated using a tight-fitting Dounce homogenizer in an ice-cold water bath (4°C). […] Next, the cell lysates were centrifuged at 4°C (13800 × g for 10 min). The supernatant to be used in the UGT glucuronidation activity assay was collected, and its protein concentration was measured by the bicinchoninic acid assay (BCA; Beyotime, Shanghai, China).

[11] = other: metabolite G1, pH 7.4, 37.0 °C
[12] = other: metabolite G2, pH 7.4, 37.0 °C

T3 sequence (O15438 whole entry): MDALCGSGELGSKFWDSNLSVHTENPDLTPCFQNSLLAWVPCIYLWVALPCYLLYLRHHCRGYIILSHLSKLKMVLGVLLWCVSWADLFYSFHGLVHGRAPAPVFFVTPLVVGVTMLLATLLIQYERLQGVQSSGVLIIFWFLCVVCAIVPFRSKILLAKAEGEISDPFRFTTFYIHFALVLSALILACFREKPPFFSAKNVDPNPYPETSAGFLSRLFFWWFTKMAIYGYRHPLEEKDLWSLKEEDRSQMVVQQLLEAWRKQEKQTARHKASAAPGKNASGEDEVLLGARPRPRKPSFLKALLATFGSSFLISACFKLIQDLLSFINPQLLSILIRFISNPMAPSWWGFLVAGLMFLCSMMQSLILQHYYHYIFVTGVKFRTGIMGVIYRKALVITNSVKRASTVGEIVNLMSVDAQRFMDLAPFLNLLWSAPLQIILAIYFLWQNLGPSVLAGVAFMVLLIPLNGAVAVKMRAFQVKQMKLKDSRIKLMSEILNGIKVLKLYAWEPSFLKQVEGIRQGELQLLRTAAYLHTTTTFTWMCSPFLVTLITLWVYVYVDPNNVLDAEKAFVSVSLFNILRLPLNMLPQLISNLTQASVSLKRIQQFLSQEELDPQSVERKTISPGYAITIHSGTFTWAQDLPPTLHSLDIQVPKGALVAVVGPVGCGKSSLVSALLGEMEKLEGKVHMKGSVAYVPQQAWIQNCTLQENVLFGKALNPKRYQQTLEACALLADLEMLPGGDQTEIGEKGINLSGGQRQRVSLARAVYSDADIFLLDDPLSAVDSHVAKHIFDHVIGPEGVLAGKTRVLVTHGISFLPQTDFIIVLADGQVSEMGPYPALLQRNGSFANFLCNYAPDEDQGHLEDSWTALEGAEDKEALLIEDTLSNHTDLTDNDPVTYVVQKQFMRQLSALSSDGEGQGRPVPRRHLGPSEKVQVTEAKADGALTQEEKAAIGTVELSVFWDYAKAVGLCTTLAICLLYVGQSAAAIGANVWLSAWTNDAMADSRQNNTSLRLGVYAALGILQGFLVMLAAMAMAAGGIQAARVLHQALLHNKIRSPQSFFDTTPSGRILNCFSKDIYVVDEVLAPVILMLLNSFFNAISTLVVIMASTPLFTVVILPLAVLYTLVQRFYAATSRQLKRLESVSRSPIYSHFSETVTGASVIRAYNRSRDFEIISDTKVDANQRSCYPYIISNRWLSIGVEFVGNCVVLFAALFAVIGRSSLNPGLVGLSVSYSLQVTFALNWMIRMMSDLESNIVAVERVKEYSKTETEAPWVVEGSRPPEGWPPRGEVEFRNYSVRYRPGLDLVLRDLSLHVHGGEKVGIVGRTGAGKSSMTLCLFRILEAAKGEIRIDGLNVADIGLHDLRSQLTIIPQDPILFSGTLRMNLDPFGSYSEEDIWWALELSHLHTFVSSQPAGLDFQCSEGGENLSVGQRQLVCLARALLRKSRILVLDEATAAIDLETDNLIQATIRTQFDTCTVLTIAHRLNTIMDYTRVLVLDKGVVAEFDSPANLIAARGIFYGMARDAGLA

COc1cc2ccc(=O)oc2c(O[C@@H]2O[C@H](C(=O)O)[C@@H](O)[C@H](O)[C@H]2O)c1O [G1, fraxetin-8-O-glucuronide]
excretion with elevation of the fraxetin concentration [1]: markedly increased | Km [2]: 8 to 16 µM | decrease in fraction metabolized (fmet) [3]: 22.7% | elevation of intracellular glucuronide [3]: 42.0% | reduction in excretion rate [3]: 34.8% | decreased excretion of glucuronide [3]: 33.6–51.1% | decrease in fraction metabolized (fmet; overall cellular glucuronidation) [4]: 24.1% | reduction in excretion rate [4]: 29.1% | reduction in excreted glucuronide [4]: 19.8–39.4% | elevation of intracellular glucuronide level [4]: 30.2%

COc1cc2ccc(=O)oc2c(O)c1O[C@@H]1O[C@H](C(=O)O)[C@@H](O)[C@H](O)[C@H]1O [G2, fraxetin-7-O-glucuronide]
excretion with elevation of the fraxetin concentration [1]: markedly increased | Km [2]: 8 to 16 µM | decrease in fraction metabolized (fmet) [3]: 23.1% | elevation of intracellular glucuronide [3]: 52.4% | reduction in excretion rate [3]: 32.3% | decreased excretion of glucuronide [3]: 33.0–42.4% | decrease in fraction metabolized (fmet; overall cellular glucuronidation) [4]: 18.6% | reduction in excretion rate [4]: 21.1% | reduction in excreted glucuronide [4]: 15.1–31.9% | elevation of intracellular glucuronide level [4]: 45.4%

COc1ccc2c3c([nH]c2c1)[C@H](CC(C)C)N1C(=O)[C@H](CCC(=O)OC(C)(C)C)NC(=O)[C@@H]1C3 [Ko143]
inhibition of fraxetin-O-glucuronidation, G1 [5]: 20.4% | inhibition of fraxetin-O-glucuronidation, G2 [5]: 29.3% | inhibition of fraxetin-O-glucuronidation, G1 [6]: 41.5% | inhibition of fraxetin-O-glucuronidation, G2 [6]: 24.9%

C=CCc1ccc(O)c(-c2cc(CC=C)ccc2O)c1 [magnolol]
effect on formation of G1 and G2 [7]: significantly inhibited

O=C(O)c1cccnc1Nc1cccc(C(F)(F)F)c1 [niflumic acid]
effect on formation of G1 and G2 [7]: significantly inhibited

CC(C)c1cccc(C(C)C)c1O[C@@H]1O[C@H](C(=O)O)[C@@H](O)[C@H](O)[C@H]1O [propofol-O-glucuronide]
excretion rate ([1]; propofol 40 μM incubated with HeLa1A9 cells): 0.053 pmol/min | excretion rate ([1]; propofol 80 μM incubated with HeLa1A9 cells): 0.070 pmol/min

B1: UGT1A9 (Homo sapiens) (protein)
chain: T1 sequence (O60656 26-530)
Km ([8]; UGT1A9 enzyme): 53 ± 6 µM | Km ([9]; other: metabolite G1): 16 ± 2 µM | Vmax ([9]; other: metabolite G1): 0.00292 µmol/min/mg | Vmax/Km ([9]; other: metabolite G1): 180 µL/min/mg | Km ([9]; other: metabolite G2): 10 ± 1 µM | Vmax ([9]; other: metabolite G2): 0.00144 µmol/min/mg | Vmax/Km ([9]; other: metabolite G2): 150 µL/min/mg

B2: HeLa1A9 cell lysate (Homo sapiens) (protein)
chain: T1 sequence (O60656 26-530)
notes: expressed in transfected cells; host or cells: HeLa cells stably transfected with the UGT1A9 gene (HeLa1A9); lysate supernatant
Km ([8]; HeLa1A9 cell lysate): 59 ± 13 µM | Km [10, 11]: 13 ± 2 µM | Vmax [10, 11]: 0.00011 ± 5e-06 µmol/min/mg | Vmax/Km [10, 11]: 9 ± 1 µL/min/mg | Km [10, 12]: 8 ± 1 µM | Vmax [10, 12]: 4.2e-05 ± 2e-06 µmol/min/mg | Vmax/Km [10, 12]: 5 ± 1 µL/min/mg
